# ChEMBL document CHEMBL4665709, “Rational Avoidance of Protease Cleavage Sites and Symmetrical End-Tagging Significantly Enhances the Stability and Therapeutic Potential of Antimicrobial Peptides” (J Med Chem, 2020)
# Calls of active or inactive are those of the source. No cut-off for these calls is given here. Where a SMILES comes first, the peptide text is derived from it.
# Tests used:
# [1] = test system: Staphylococcus aureus; assay: Antibacterial activity against Staphylococcus aureus 29213 with 0.0625-2 mg/mL proteinase K for 1 hr followed by test compound addition measured after 4 to 8 hrs by CLSI-based broth microdilution method; assay type: functional, organism-based; details: time hrs 4-8
# [2] = test system: Erythrocyte; assay: Hemolytic activity in human RBC assessed as hemolysis; assay type: ADME, cell-based
# [3] = test system: Salmonella typhimurium; assay: Antibacterial activity against Salmonella typhimurium 14028 after 18 to 24 hrs by CLSI-based broth microdilution method; assay type: functional, Salmonella enterica subsp. enterica serovar Typhimurium; details: Salmonella enterica, time hrs 18-24
# [4] = Therapeutic index, ratio of MHC for human RBC to geometric mean of peptide MIC for Staphylococcus epidermidis ATCC 12228; assay type: toxicity; details: human red blood cells (RBC), read-out: TI
# [5] = test system: Enterococcus faecalis; assay: Antibacterial activity against Enterococcus faecalis ATCC 29212 after 18 to 24 hrs by CLSI-based broth microdilution method; assay type: functional; details: time hrs 18-24
# [6] = test system: Salmonella typhimurium; assay: Antibacterial activity against Salmonella typhimurium 7731 after 18 to 24 hrs by CLSI-based broth microdilution method; assay type: functional, Salmonella enterica subsp. enterica serovar Typhimurium; details: Salmonella enterica, time hrs 18-24
# [7] = Stability of compound assessed as proteinase K (unknown origin)-mediated drug degradation after 8 hrs by RP-HPLC analysis; assay type: ADME; details: human
# [8] = Cytotoxicity against HEK-293T cells assessed as cell viability at 128 uM by MTT assay relative to control; assay type: cell-based; details: human, read-out: Activity
# [9] = test system: Escherichia coli; assay: Antibacterial activity against Escherichia coli ATCC 25922 after 18 to 24 hrs in presence of 4.5 mM K+ by CLSI-based broth microdilution method; assay type: functional; details: time hrs 18-24
# [10] = Therapeutic index, ratio of MHC for human RBC to geometric mean of peptide MIC for Staphylococcus aureus ATCC 29213; assay type: toxicity; details: human red blood cells (RBC), read-out: TI
# [11] = test system: Cell membrane; assay: Induction of morpholoical changes in membrane of Escherichia coli ATCC 25922 assessed as fragmentation in bacterial membrane at 1 times MIC after 1 hr by scanning electron microscopy; assay type: subcellular
# [12] = test system: Staphylococcus aureus; assay: Antibacterial activity against Staphylococcus aureus 29213 with 0.0625-2 mg/mL pepsin for 1 hr followed by test compound addition measured after 4 to 8 hrs by CLSI-based broth microdilution method; assay type: functional, organism-based; details: time hrs 4-8
# [13] = test system: Staphylococcus aureus; assay: Antibacterial activity against Staphylococcus aureus ATCC 29213 after 18 to 24 hrs in presence of 1 mM Mg2+ by CLSI-based broth microdilution method; assay type: functional; details: time hrs 18-24
# [14] = test system: Staphylococcus aureus; assay: Antibacterial activity against Staphylococcus aureus ATCC 29213 after 18 to 24 hrs in presence of 25% human serum by CLSI-based broth microdilution method; assay type: functional; details: time hrs 18-24
# [15] = test system: Cell membrane; assay: Disruption of membrane integrity in Staphylococcus aureus ATCC 29213 assessed as induction of membrane rupture at 0.5 to 2 times after 1 hr by PI-staining based fluorescence microscopy; assay type: subcellular
# [16] = test system: Staphylococcus aureus; assay: Antibacterial activity against Staphylococcus aureus 11011 after 18 to 24 hrs by CLSI-based broth microdilution method; assay type: functional; details: time hrs 18-24
# [17] = test system: Cell membrane; assay: Induction of structural changes in membrane of Staphylococcus aureus ATCC 29213 assessed as sparsity at 1 times MIC after 1 hr by transmission electron microscopy; assay type: subcellular
# [18] = test system: Cell membrane; assay: Disruption of membrane integrity in Staphylococcus aureus ATCC 29213 assessed as induction of membrane rupture after 1 hr by PI-staining based flow cytometry analysis
# [19] = Therapeutic index, ratio of MHC for human RBC to geometric mean of peptide MIC for Salmonella typhimurium 14028; assay type: toxicity; details: human red blood cells (RBC), read-out: TI
# [20] = test system: Cell membrane; assay: Disruption of membrane integrity in Escherichia coli ATCC 25922 assessed as induction of membrane rupture at 2 times MIC after 1 hr by PI-staining based flow cytometry analysis relative to control
# [21] = test system: Escherichia coli; assay: Antibacterial activity against Escherichia coli ATCC 25922 infected in C57BL/6 mouse assessed as reduction in bleeding in spleen at 10 mg/kg, ip measured after 11 hrs by hematoxylin and eosin staining based assay; assay type: functional, organism-based
# [22] = molecular target: T1, Trypsin (Homo sapiens, UniProt P07477+P07478+P35030); assay: Stability of compound assessed as trypsin (unknown origin)-mediated drug degradation after 8 hrs by RP-HPLC analysis; assay type: ADME, protein assay
# [23] = molecular target: T1, Trypsin; assay: Stability of compound assessed as trypsin (unknown origin)-mediated drug degradation after 8 hrs by SDS-PAGE analysis; assay type: ADME, protein assay
# [24] = test system: Cell membrane; assay: Induction of morpholoical changes in membrane of Staphylococcus aureus ATCC 29213 assessed as fragmentation in bacterial membrane at 1 times MIC after 1 hr by scanning electron microscopy; assay type: subcellular
# [25] = test system: RAW264.7; assay: Antiinflammatory activity in mouse RAW264.7 cells assessed as inhibition of LPS-induced TNF-alpha production after 24 hrs by ELISA; assay type: functional, cell-based
# [26] = test system: Staphylococcus aureus; assay: Antibacterial activity against Staphylococcus aureus ATCC 29213 after 18 to 24 hrs by CLSI-based broth microdilution method; assay type: functional; details: time hrs 18-24
# [27] = test system: Escherichia coli; assay: Antibacterial activity against Escherichia coli ATCC 25922 after 18 to 24 hrs in presence of 150 mM Na+ by CLSI-based broth microdilution method; assay type: functional; details: time hrs 18-24
# [28] = test system: Escherichia coli; assay: Antibacterial activity against Escherichia coli ATCC 25922 after 18 to 24 hrs in presence of 6 uM NH4+ by CLSI-based broth microdilution method; assay type: functional; details: time hrs 18-24
# [29] = test system: Escherichia coli; assay: Antibacterial activity against Escherichia coli ATCC 25922 after 18 to 24 hrs in presence of 8 uM Zn2+ by CLSI-based broth microdilution method; assay type: functional; details: time hrs 18-24
# [30] = Therapeutic index, ratio of MHC for human RBC to geometric mean of peptide MIC for Escherichia coli UB1005; assay type: toxicity; details: human red blood cells (RBC), read-out: TI
# [31] = Toxicity in C57BL/6 mouse assessed as effect on aspartate aminotransferase level at 20 mg/kg, ip measured after 5 days; assay type: organism-based; details: in vivo, 120 h, time 5 day
# [32] = test system: Escherichia coli; assay: Antibacterial activity against Escherichia coli ATCC 25922 infected in C57BL/6 mouse assessed as reduction in lesion in spleen at 10 mg/kg, ip measured after 11 hrs by hematoxylin and eosin staining based assay; assay type: functional, organism-based
# [33] = test system: RAW264.7; assay: Antiinflammatory activity in mouse RAW264.7 cells assessed as inhibition of LPS-induced IL-6 production after 24 hrs by ELISA; assay type: functional, cell-based
# [34] = test system: Cell membrane; assay: Induction of morpholoical changes in membrane of Staphylococcus aureus ATCC 29213 assessed as breakage in bacterial membrane at 1 times MIC after 1 hr by scanning electron microscopy; assay type: subcellular
# [35] = test system: Cell membrane; assay: Disruption of membrane integrity in Staphylococcus aureus ATCC 29213 assessed as induction of membrane rupture at 2 times MIC after 1 hr by PI-staining based flow cytometry analysis
# [36] = Toxicity in C57BL/6 mouse assessed as effect on aspartate aminotransferase level at 10 mg/kg, ip measured after 5 days; assay type: organism-based; details: in vivo, 120 h, time 5 day
# [37] = Toxicity in C57BL/6 mouse assessed as effect on total bilirubin level at 10 mg/kg, ip measured after 5 days; assay type: organism-based; details: in vivo, 120 h, time 5 day
# [38] = test system: Cell membrane; assay: Induction of structural changes in membrane of Escherichia coli ATCC 25922 assessed as outer membrane separation at 1 times MIC after 1 hr by transmission electron microscopy; assay type: subcellular
# [39] = test system: Cell membrane; assay: Induction of morpholoical changes in membrane of Escherichia coli ATCC 25922 assessed as corrugation in bacterial membrane at 1 times MIC after 1 hr by scanning electron microscopy
compound,measurement,setting,value
CC[C@H](C)[C@H](N)C(=O)N[C@H](C(=O)N[C@H](C(=O)N[C@@H](CS)C(=O)N[C@@H](CCCNC(=N)N)C(=O)N[C@@H](CCCCN)C(=O)N1CCC[C@H]1C(=O)N[C@H](C(=O)N[C@H](C(=O)N[C@@H](CS)C(=O)N[C@@H](CCCNC(=N)N)C(=O)N[C@@H](CCCCN)C(=O)N1CCC[C@H]1C(=O)N[C@H](C(=O)N[C@H](C(=O)N[C@@H](CS)C(=O)N[C@@H](CCCNC(=N)N)C(=O)N[C@@H](CCCCN)C(=O)N1CCC[C@H]1C(=O)N[C@H](C(=O)N[C@H](C(=O)N[C@@H](CS)C(=O)N[C@@H](CCCNC(=N)N)C(=O)N[C@@H](CCCCN)C(=O)N1CCC[C@H]1C(=O)N[C@H](C(=O)N[C@H](C(=O)N[C@H](C(N)=O)[C@@H](C)CC)[C@@H](C)CC)[C@@H](C)CC)[C@@H](C)CC)[C@@H](C)CC)[C@@H](C)CC)[C@@H](C)CC)[C@@H](C)CC)[C@@H](C)CC)[C@@H](C)CC)[C@@H](C)CC (H-IIICRKPIICRKPIICRKPIICRKPIII-NH2),Activity,[1],Active
same,MHC,[2],> 128 µM
same,MIC,[3],2 µM
same,selectivity ratio,[4],28.5
same,MIC,[5],8 µM
same,MIC,[6],2 µM
same,Stabilty,[7],Stable
same,viability at 128 µM,[8],> 90%
same,MIC,[9],2 µM
same,selectivity ratio,[10],28.5
same,Activity,[11],Active
same,Activity,[12],Active
same,MIC,[13],16 µM
same,MIC,[14],8 µM
same,Activity,[15],Active
same,MIC,[16],4 µM
same,Activity,[17],Active
same,Activity,[18],Dose-dependent effect
same,selectivity ratio,[19],57
same,Activity,[20],> 90%
same,Activity,[21],Active
same,Stabilty,[22],Stable
same,Stabilty,[23],Stable
same,Activity,[24],Active
same,Activity,[25],Dose-dependent effect
same,MIC,[26],8 µM
same,MIC,[27],4 µM
same,MIC,[28],2 µM
same,MIC,[29],2 µM
same,selectivity ratio,[30],57
same,Activity,[31],Non-Toxic
same,Activity,[32],Active
same,Activity,[33],Dose-dependent effect
same,Activity,[34],Active
same,Activity,[35],> 90%
same,Activity,[36],Non-Toxic
same,Activity,[37],Non-Toxic
same,Activity,[38],Active
same,Activity,[39],Active
